Laboratory results as given in patent publication US20100189807A1, “Use of an ozone / oxygen mixture as a primary anticancer therapy via intraperitoneal insufflation” (priority 2009, published 2010).

Tests used:
[1] = test system: VX2 auricular carcinoma; assay: Therapy of auricular VX2 carcinoma in rabbits by intraperitoneal gas insufflation (survival, tumor clearance, lung metastases); type: in vivo, New Zealand White (NZW) rabbit; conditions: n=14 (O3/O2), n=13 (O2)
[2] = Hematological and clinical chemistry blood parameters; type: in vivo, New Zealand White (NZW) rabbit
Method: Arterial blood samples from the central auricular artery of the left tumor free ear were taken on day 14 post inoculation (directly before the first gas insufflation/sham treatment) and on day 19 post inoculation (24 h after the last gas insufflation/sham treatment). Additional blood samples were taken on day 90 from the O3/O2-rem animals (FIG. 1a). For hematological investigations we used an autoanalyzer (Vet abc™ Animal Blood Counter, ABX Diagnostics, Goettingen, Germany), that has been carefully adjusted and validated for the analysis of rabbit blood. For differential blood counts the RBC count was determined together with the hematocrit (HCT) and hemoglobin (HGB). […] Data were expressed as mean values±SEM. For clinical chemistry investigations creatinine, GOT, and GPT values were measured with the Reflovet® Plus system (Roche Diagnostics GmbH, Mannheim, Germany) to monitor for kidney and liver functions.
For comparison of survival rates of the three experimental groups the logrank test was performed considering p values<0.05 as significant. The survival probability of rabbits calculated from the time of tumor cell inoculation until day 90 was depicted according to the Kaplan-Meier method. […] Statistical differences in mean body weight between the experimental groups were evaluated at daily intervals with the unpaired Student's t test with two tail p values. […]

[3] = inhaled ozone; cited from earlier work

With `O=O` [O2] the “number of rabbits with remission of the tumor” value [1] was “two”, the RBC ([2]; d 14, directly before the first insufflation) was 5.68 10^6/mm^3 and the RBC ([2]; d 19, 24 h after the last insufflation) was 5.31 10^6/mm^3.

In the case of `O=[O+][O-]` [ozone], the “grade of adverse effect (weight loss)” value [3] is given as “grade II”.
